Patent US20160095843A1, “PYRAZOLOPYRROLIDINE DERIVATIVES AND THEIR USE IN THE TREATMENT OF DISEASE” (NOVARTIS AG, priority 2013, published 2016)

How the values were obtained:
[1] = tested on: MV-4-11 cells; test: Cell growth inhibition assay (CellTiter-Glo), MV-4-11; format: cell-based; conditions: Homo sapiens, MV4-11
Protocol: (§1) Cell Growth Inhibition Assay
(§2) The human leukemia cell lines MV-4-11, THP-1 and K-562 were employed to characterize the effect of BET inhibitors on cellular proliferation and viability. Cells were obtained from the American Type Culture Collection (ATCC) and cultured at 37° C. in a humidified 5% CO2 incubator in the following media: MV-4-11: DMEM high glucose (Animed #1-26F01-I), 10% FCS (Animed #2-01F26-I), 4 mM L-Glutamine (Animed #5-10K50), 1 mM Sodium Pyruvate (Animed # G03625P), 1× Penicillin-Streptomycin (Animed # F12478P); K-562: Iscove's MEM (Animed #1-28F16-I), 10% FCS (Animed #2-01F26-I), 4 mM L-Glutamine (Animed #5-10K50), 1× Penicillin-Streptomycin (Animed # F12478P); THP-1: RPMI-1640 (Animed #1-41F01-I), 10% FCS (Animed #2-01F26-I), 2 mM L-Glutamine (Animed #5-10K50), 10 mM HEPES (Animed #5-31F100), 1 mM Sodium Pyruvate (Animed # G03625P), 1× Penicillin-Streptomycin (Animed # F12478P). The AML lines MV-4-11 and THP-1 are very sensitive to BET inhibitors and show massive cell death upon BET inhibition (Zuber et al., Nature, 478 (2011), 524-8). Compound-mediated suppression of cell proliferation/viability was assessed by quantification of cellular ATP levels using the CellTiter-Glo (CTG) reagent (Promega). Briefly, cells were seeded in 20 μl fresh medium into 384-well plates, followed by addition of 5 μL medium containing compound dilutions at 5-fold their final intended concentration. Dose-response effects were assessed by 3-fold serial dilutions of the test compound, starting at 10 μM. Following incubation of the cells for 4 days at 37° C. and 5% CO2, the effect of inhibitors on cell viability was quantified following addition of 20 μl CTG and luminescence quantification (integration time: 100 ms) as per vendor manual, using a correspondingly equipped Tecan M200 multi-mode platereader (TECAN, Switzerland). For data analysis, the assay background value determined in wells containing medium, but no cells, was subtracted from all data points. To enable differentiation of cytotoxic from cytostatic compounds, the number of viable cells is assessed relative to that observed at the time of compound addition using a separate cell plate (day 0). The effect of a particular test compound concentration on cell proliferation/viability is expressed as percentage of the background- and day 0-corrected luminescence reading obtained for cells treated with vehicle only (DMSO, 0.1% final concentration), which is set as 100%, whereas that luminescence reading for wells containing medium is set as −100%. Compound concentrations leading to half-maximal (1050) and total growth inhibition (TGI) were determined using standard four parameter curve fitting.

[2] = tested on: K-562 cells; test: Cell growth inhibition assay (CellTiter-Glo), K-562; format: cell-based, human; conditions: Homo sapiens, K562
Protocol: as §1, §2

[3] = tested on: THP-1 cells; test: Cell growth inhibition assay (CellTiter-Glo), THP-1; format: cell-based; conditions: Homo sapiens
Protocol: as §1, §2

SMILES | GI50 [1] | GI50 [2] | GI50 [3]
Cc1cc(N2C(=O)c3nn(C)c(O)c3C2c2ccc(Cl)cc2)cn(C)c1=O (stereo not drawn) [Example 73, 4-(4-chlorophenyl)-5-(1,5-dimethyl-6-oxo-1,6-dihydropyridin-3-yl)-3-hydroxy-2-methyl-4,5-dihydropyrrolo[3,4-c]pyrazol-6(2H)-one] | 3020 nM | > 10000 nM | > 10000 nM
COc1c2c(nn1C)C(=O)N(c1cc(C)c(=O)n(C)c1)C2c1ccc(Cl)cc1 (stereo not drawn) [Example 77, 4-(4-chlorophenyl)-5-(1,5-dimethyl-6-oxo-1,6-dihydropyridin-3-yl)-3-methoxy-2-methyl-4,5-dihydropyrrolo-[3,4-c]pyrazol-6(2H)-one] | 88.8 nM | 569 nM | 178 nM
CCc1nn(CCO)c2c1C(c1ccc(Cl)cc1)N(c1cc(C)c(=O)n(C)c1)C2=O (stereo not drawn) [Example 78, 4-(4-chlorophenyl)-5-(1,5-dimethyl-6-oxo-1,6-dihydropyridin-3-yl)-3-ethyl-1-(2-hydroxyethyl)-4,5-dihydropyrrolo-[3,4-c]pyrazol-6(1H)-one] | 52 nM | 392 nM | 85.4 nM
CCc1nn(CCO)c2c1C(c1ccc(Cl)cc1)N(c1cc(C)c3onc(C)c3c1)C2=O (stereo not drawn) [Example 79, 4-(4-chlorophenyl)-5-(3,7-dimethylbenzo[d]isoxazol-5-yl)-3-ethyl-1-(2-hydroxyethyl)-4,5-dihydropyrrolo-[3,4-c]pyrazol-6(1H)-one] | 348 nM | 920 nM | 255 nM
CCc1c2c(nn1CCO)C(=O)N(c1cc(C)c3onc(C)c3c1)C2c1ccc(Cl)cc1 (stereo not drawn) [Example 80, 4-(4-chlorophenyl)-5-(3,7-dimethylbenzo[d]isoxazol-5-yl)-3-ethyl-2-(2-hydroxyethyl)-4,5-dihydropyrrolo[3,4-c]pyrazol-6(2H)-one] | 356 nM | 868 nM | 354 nM
Cc1ncccc1-n1nc(C)c2c1C(=O)N(c1cc(C)c(=O)n(C)c1)C2c1ccc(Cl)cc1 (stereo not drawn) [Example 82, 4-(4-chlorophenyl)-5-(1,5-dimethyl-6-oxo-1,6-dihydropyridin-3-yl)-3-methyl-1-(2-methylpyridin-3-yl)-4,5-dihydropyrrolo[3,4-c]pyrazol-6(1H)-one] | 94.8 nM | 920 nM | 222 nM
Cc1nn(-c2cncn2C)c2c1C(c1ccc(Cl)cc1)N(c1cc(C)c(=O)n(C)c1)C2=O (stereo not drawn) [Example 83, 4-(4-chlorophenyl)-5-(1,5-dimethyl-6-oxo-1,6-dihydropyridin-3-yl)-3-methyl-1-(1-methyl-1H-imidazol-5-yl)-4,5-dihydropyrrolo[3,4-c]pyrazol-6(1H)-one] | 100 nM | 719 nM | 164 nM
CCc1nn(CCOC)c2c1C(c1ccc(Cl)cc1)N(c1cc(C)c(=O)n(C)c1)C2=O (stereo not drawn) [Example 86, 4-(4-chlorophenyl)-5-(1,5-dimethyl-6-oxo-1,6-dihydropyridin-3-yl)-3-ethyl-1-(2-methoxyethyl)-4,5-dihydropyrrolo[3,4-c]pyrazol-6(1H)-one] | 34.6 nM | 229 nM | 63.8 nM
Cc1nn(-c2ccnn2C)c2c1C(c1ccc(Cl)cc1)N(c1cc(C)c3nnc(C)n3c1)C2=O (stereo not drawn) [Example 90, 4-(4-chlorophenyl)-5-(3,8-dimethyl-[1,2,4]triazolo[4,3-a]pyridin-6-yl)-3-methyl-1-(1-methyl-1H-pyrazol-5-yl)-4,5-dihydropyrrolo[3,4-c]pyrazol-6(1H)-one] | 25.5 nM | 276 nM | 51 nM
Cc1nn(C2CC2)c2c1C(c1ccc(Cl)cc1)N(c1cc(C)c3nnc(C)n3c1)C2=O (stereo not drawn) [Example 92, 4-(4-chlorophenyl)-1-cyclopropyl-5-(3,8-dimethyl-[1,2,4]triazolo[4,3-a]pyridin-6-yl)-3-methyl-4,5-dihydropyrrolo-[3,4-c]pyrazol-6(1H)-one] | 10.9 nM | 65 nM | 19.2 nM
Cc1cc(N2C(=O)c3nn(C4CC4)c(C)c3C2c2ccc(Cl)cc2)cn2c(C)nnc12 (stereo not drawn) [Example 93, 4-(4-chlorophenyl)-2-cyclopropyl-5-(3,8-dimethyl-[1,2,4]triazolo[4,3-a]pyridin-6-yl)-3-methyl-4,5-dihydropyrrolo[3,4-c]pyrazol-6(2H)-one] | 13.5 nM | 80 nM | 26.4 nM
Cc1nn(C2CCC2)c2c1C(c1ccc(Cl)cc1)N(c1cc(C)c(=O)n(C)c1)C2=O (stereo not drawn) [Example 94, 4-(4-chlorophenyl)-1-cyclobutyl-5-(1,5-dimethyl-6-oxo-1,6-dihydropyridin-3-yl)-3-methyl-4,5-dihydropyrrolo-[3,4-c]pyrazol-6(1H)-one] | 19.5 nM | 96.9 nM | 34.4 nM
Cc1nn(C2CC2)c2c1C(c1ccc(OC(F)(F)F)cc1)N(c1cc(C)c(=O)n(C)c1)C2=O (stereo not drawn) [Example 95, 1-cyclopropyl-5-(1,5-dimethyl-6-oxo-1,6-dihydropyridin-3-yl)-3-methyl-4-(4-(trifluoromethoxy)phenyl)-4,5-dihydropyrrolo-[3,4-c]pyrazol-6(1H)-one] | 140 nM | 868 nM | 245 nM
Cc1nn(C2CC2)c2c1C(c1cccc(C(F)(F)F)c1)N(c1cc(C)c(=O)n(C)c1)C2=O (stereo not drawn) [Example 96, 1-cyclopropyl-5-(1,5-dimethyl-6-oxo-1,6-dihydropyridin-3-yl)-3-methyl-4-(3-(trifluoromethyl)phenyl)-4,5-dihydropyrrolo[3,4-c]pyrazol-6(1H)-one] | 894 nM | 5900 nM | 1260 nM

Continued by falling GI50 [1], values first:

GI50 [1] | GI50 [2] | GI50 [3] | SMILES
633 nM | 2680 nM | 908 nM | Cc1nn(C2CC2)c2c1C(c1cccc(OC(F)(F)F)c1)N(c1cc(C)c(=O)n(C)c1)C2=O (stereo not drawn) [Example 91, 1-cyclopropyl-5-(1,5-dimethyl-6-oxo-1,6-dihydropyridin-3-yl)-3-methyl-4-(3-(trifluoromethoxy)phenyl)-4,5-dihydropyrrolo-[3,4-c]pyrazol-6(1H)-one]
100 nM | 766 nM | 223 nM | COc1ncccc1-n1nc(C)c2c1C(=O)N(c1cc(Cl)c(=O)n(C)c1)C2c1ccc(Cl)cc1 (stereo not drawn) [Example 72, 5-(5-chloro-1-methyl-6-oxo-1,6-dihydropyridin-3-yl)-4-(4-chlorophenyl)-1-(2-methoxypyridin-3-yl)-3-methyl-4,5-dihydropyrrolo[3,4-c]pyrazol-6(1H)-one]
95.6 nM | 883 nM | 261 nM | Cc1ncccc1-n1nc2c(c1C)C(c1ccc(Cl)cc1)N(c1cc(C)c(=O)n(C)c1)C2=O (stereo not drawn) [Example 81, 4-(4-chlorophenyl)-5-(1,5-dimethyl-6-oxo-1,6-dihydropyridin-3-yl)-3-methyl-2-(2-methylpyridin-3-yl)-4,5-dihydropyrrolo-[3,4-c]pyrazol-6(2H)-one]
58.3 nM | 384 nM | 86.9 nM | CCc1nn(C2CC2)c2c1C(c1ccc(Cl)cc1)N(c1cc(OC)c3nnc(C)n3c1)C2=O (stereo not drawn) [Example 84, 4-(4-chlorophenyl)-1-cyclopropyl-3-ethyl-5-(8-methoxy-3-methyl-[1,2,4]triazolo[4,3-a]pyridin-6-yl)-4,5-dihydropyrrolo-[3,4-c]pyrazol-6(1H)-one]
53.2 nM | 339 nM | 140 nM | CCOc1c2c(nn1C)C(=O)N(c1cc(C)c(=O)n(C)c1)C2c1ccc(Cl)cc1 (stereo not drawn) [Example 76, 4-(4-chlorophenyl)-5-(1,5-dimethyl-6-oxo-1,6-dihydropyridin-3-yl)-3-ethoxy-2-methyl-4,5-dihydropyrrolo-[3,4-c]pyrazol-6(2H)-one]
46.5 nM | 442 nM | 40.6 nM | CCc1nn(-c2ccnn2C)c2c1C(c1ccc(Cl)cc1)N(c1cc(C)c(=O)n(C)c1)C2=O (stereo not drawn) [Example 89, 4-(4-chlorophenyl)-5-(1,5-dimethyl-6-oxo-1,6-dihydropyridin-3-yl)-3-ethyl-1-(1-methyl-1H-pyrazol-5-yl)-4,5-dihydropyrrolo-[3,4-c]pyrazol-6(1H)-one]
16.4 nM | 128 nM | 23.5 nM | CCc1nn(CCOC)c2c1C(c1ccc(Cl)cc1)N(c1cc(C)c3nnc(C)n3c1)C2=O (stereo not drawn) [Example 87, 4-(4-chlorophenyl)-5-(3,8-dimethyl-[1,2,4]triazolo[4,3-a]pyridin-6-yl)-3-ethyl-1-(2-methoxyethyl)-4,5-dihydropyrrolo-[3,4-c]pyrazol-6(1H)-one]
